Source: ChEMBL document CHEMBL1137755, “[35S]GTP gamma S binding studies of amphiphilic drugs-activated Gi proteins: a caveat” (Bioorg Med Chem Lett, 2009)
Activity calls are given as the source filed them. The rule behind the calls is not given here.

Tests used:
[1] = target: Guanine nucleotide-binding protein G(i) subunit alpha-1 (Homo sapiens) (UniProt P63096); assay: Activation of human Gi protein alpha1 subunit expressed in Escherichia coli assessed as protein bound [35S]GTPgammaS levels by scintillation spectroscopy; assay type: functional
[2] = Critical micelle concentration by drop-shape analysis; assay type: physicochemical
[3] = target: Guanine nucleotide-binding protein G(i) subunit alpha-1 (Homo sapiens) (UniProt P63096); assay: Activation of human Gi protein alpha1 subunit expressed in Escherichia coli assessed as protein bound [35S]GTPgammaS levels at 10 uM by scintillation spectroscopy; assay type: functional
[4] = target: Guanine nucleotide-binding protein G(i) subunit alpha-1 (Homo sapiens) (UniProt P63096); assay: Activation of human Gi protein alpha1 subunit expressed in Escherichia coli assessed as protein bound [35S]GTPgammaS levels at 1 uM by scintillation spectroscopy; assay type: functional
[5] = target: Guanine nucleotide-binding protein G(i) subunit alpha-1 (Homo sapiens) (UniProt P63096); assay: Activation of human Gi protein alpha1 subunit expressed in Escherichia coli assessed as protein bound [35S]GTPgammaS levels at 10 uM by scintillation spectroscopy relative to basal; assay type: functional
[6] = target: Guanine nucleotide-binding protein G(i) subunit alpha-1 (Homo sapiens) (UniProt P63096); assay: Activation of human Gi protein alpha1 subunit expressed in Escherichia coli assessed as protein bound [35S]GTPgammaS levels at 50 uM by scintillation spectroscopy; assay type: functional
[7] = target: Guanine nucleotide-binding protein G(i) subunit alpha-1 (Homo sapiens) (UniProt P63096); assay: Activation of human Gi protein alpha1 subunit expressed in Escherichia coli assessed as protein bound [35S]GTPgammaS levels at 5 uM by scintillation spectroscopy; assay type: functional
[8] = target: Guanine nucleotide-binding protein G(i) subunit alpha-1 (Homo sapiens) (UniProt P63096); assay: Activation of human Gi protein alpha1 subunit expressed in Escherichia coli assessed as protein bound [35S]GTPgammaS levels at 100 uM by scintillation spectroscopy; assay type: functional
[9] = target: Guanine nucleotide-binding protein G(o) subunit alpha (Homo sapiens) (UniProt P09471); assay: Activation of human Go protein alpha subunit expressed in Escherichia coli assessed as protein bound [35S]GTPgammaS levels at 10 uM by scintillation spectroscopy relative to basal; assay type: functional
[10] = target: Guanine nucleotide-binding protein G(o) subunit alpha (Homo sapiens) (UniProt P09471); assay: Activation of human Go protein alpha subunit expressed in Escherichia coli assessed as protein bound [35S]GTPgammaS levels at 50 uM by scintillation spectroscopy; assay type: functional
[11] = target: Guanine nucleotide-binding protein G(o) subunit alpha (Homo sapiens) (UniProt P09471); assay: Activation of human Go protein alpha subunit expressed in Escherichia coli assessed as protein bound [35S]GTPgammaS levels at 1 uM by scintillation spectroscopy; assay type: functional
[12] = target: Guanine nucleotide-binding protein G(o) subunit alpha (Homo sapiens) (UniProt P09471); assay: Activation of human Go protein alpha subunit expressed in Escherichia coli assessed as protein bound [35S]GTPgammaS levels at 5 uM by scintillation spectroscopy; assay type: functional
[13] = target: Guanine nucleotide-binding protein G(o) subunit alpha (Homo sapiens) (UniProt P09471); assay: Activation of human Go protein alpha subunit expressed in Escherichia coli assessed as protein bound [35S]GTPgammaS levels at 100 uM by scintillation spectroscopy; assay type: functional
[14] = target: Guanine nucleotide-binding protein G(o) subunit alpha (Homo sapiens) (UniProt P09471); assay: Activation of human Go protein alpha subunit expressed in Escherichia coli assessed as protein bound [35S]GTPgammaS levels at 10 uM by scintillation spectroscopy; assay type: functional

Chain of Guanine nucleotide-binding protein G(o) subunit alpha (Homo sapiens) (P09471 2-354 limits assumed): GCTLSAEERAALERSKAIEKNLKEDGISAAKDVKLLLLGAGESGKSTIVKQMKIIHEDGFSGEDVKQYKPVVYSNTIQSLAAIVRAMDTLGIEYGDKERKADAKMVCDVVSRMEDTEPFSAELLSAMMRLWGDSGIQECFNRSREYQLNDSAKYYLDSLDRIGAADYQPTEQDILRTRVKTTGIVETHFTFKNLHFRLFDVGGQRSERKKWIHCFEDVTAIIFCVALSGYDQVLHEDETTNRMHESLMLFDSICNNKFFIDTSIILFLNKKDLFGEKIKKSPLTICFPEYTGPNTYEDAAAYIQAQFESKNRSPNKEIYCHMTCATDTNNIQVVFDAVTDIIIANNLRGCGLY
Chain of Guanine nucleotide-binding protein G(i) subunit alpha-1 (Homo sapiens) (P63096 whole entry): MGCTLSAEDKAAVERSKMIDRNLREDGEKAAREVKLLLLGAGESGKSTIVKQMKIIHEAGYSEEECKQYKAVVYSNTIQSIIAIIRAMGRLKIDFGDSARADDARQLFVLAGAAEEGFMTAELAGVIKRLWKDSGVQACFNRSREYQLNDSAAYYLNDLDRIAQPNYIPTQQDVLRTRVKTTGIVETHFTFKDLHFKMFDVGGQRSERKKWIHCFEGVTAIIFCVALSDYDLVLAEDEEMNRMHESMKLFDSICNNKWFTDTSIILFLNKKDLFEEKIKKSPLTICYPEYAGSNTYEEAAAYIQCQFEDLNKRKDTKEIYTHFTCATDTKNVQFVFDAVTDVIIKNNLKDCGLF

CCCCCNCC1CCNCC1
Activity [1]: inactive

CCOCCOCCOCCOCCOCCNC1CCNCC1
Activity [1]: inactive

CCCCCCCCCCCCCCCNC1CCN(CCN)CC1
Activity [1]: Active | CMC [2]: 1 ×10⁻⁴ M

CCCCCCCCCCCCCCC(=O)N1CCC(C2CCN(CCN)CC2)CC1
Activity [3]: 87 fmol | Activity [4]: 30.3 fmol | Activity [5]: 877% | Activity [6]: 103 fmol | Activity [7]: 76.2 fmol

c1ccc(CCCCNC2CCNCC2)cc1
Activity [1]: inactive

c1ccc(CCCCNN2CCNCC2)cc1
Activity [1]: inactive

CCCCCNN1CCNCC1
Activity [1]: inactive

CCCCCCCN1CCC(C2CCNCC2)CC1
Activity [1]: inactive

CCOCCOCCOCCNCC1CCNCC1
Activity [1]: inactive

CCCCCCCCCNN1CCNCC1
Activity [1]: inactive

CCCCCCCCCCCCCCCNCC1CCN(CCNC=O)CC1
Activity [3]: 113 fmol | Activity [4]: 8.9 fmol | Activity [5]: 1170% | Activity [6]: 980 fmol | Activity [7]: 69.1 fmol

c1ccc(CCCCNCC2CCNCC2)cc1
Activity [1]: inactive

CCCCCCCCCCCCCCC(=O)N1CCC(C2CCN(C(=O)[C@@H](N)CCCCN)CC2)CC1
Activity [1]: Active

CCCCCCCCCCCCCCCNC1CCN(C(=O)[C@@H](N)CCCCN)CC1
Activity [1]: Active

CCCCCCCCCCCCCCCN1CCC(C2CCN(CCNC(=O)[C@@H](N)CCCCN)CC2)CC1
Activity [3]: 275 fmol | CMC [2]: 1.41 ×10⁻⁴ M | Activity [4]: 19.9 fmol | Activity [5]: 2990% | Activity [6]: 781 fmol | Activity [7]: 33.3 fmol

CCCCCCCNN1CCNCC1
Activity [1]: inactive

CCCCCN1CCC(C2CCNCC2)CC1
Activity [1]: inactive

CCOCCOCCOCCNN1CCNCC1
Activity [1]: inactive

CCCCCCCCCCCCCCCN1CCC(C2CCN(C(=O)[C@@H](N)CCCCN)CC2)CC1
Activity [1]: Active

CCOCCOCCOCCN1CCC(C2CCNCC2)CC1
Activity [1]: inactive

CCCCCCCCCCCCCCCNC1CCNCC1
Activity [8]: 195 fmol | Activity [3]: 70.6 fmol | Activity [9]: 668% | Activity [10]: 1400 fmol | Activity [11]: 102 fmol | Activity [12]: 363 fmol | CMC [2]: 1.44 ×10⁻⁴ M | Activity [13]: 1420 fmol | Activity [14]: 636 fmol | Activity [4]: 15.4 fmol | Activity [5]: 693% | Activity [6]: 196 fmol | Activity [7]: 49.5 fmol

CCCCCNC1CCNCC1
Activity [1]: inactive

CCOCCOCCOCCOCCOCCN1CCC(C2CCNCC2)CC1
Activity [1]: inactive

c1ccc(CCCCN2CCC(C3CCNCC3)CC2)cc1
Activity [1]: inactive

CCCCCCCCCCCCCCCNC1CCN(CCNC(=O)[C@@H](N)CCCCN)CC1
Activity [1]: Active

CCOCCOCCOCCOCCNC1CCNCC1
Activity [1]: inactive

CCCCCCCCCN1CCC(C2CCNCC2)CC1
Activity [1]: inactive

CCOCCOCCOCCNC1CCNCC1
Activity [1]: inactive

CCCCCCCCCCCCCCCN1CCC(C2CCN(CCN)CC2)CC1
Activity [3]: 234 fmol | Activity [4]: 11.6 fmol | Activity [5]: 2550% | Activity [6]: 2300 fmol | Activity [7]: 78.7 fmol

CCCCCCCCCCCCCCCN1CCC(NC(=O)[C@@H](N)CCCCN)CC1
Activity [3]: 157 fmol | Activity [4]: 23.7 fmol | Activity [5]: 1660% | Activity [6]: 185 fmol | Activity [7]: 103 fmol

CCCCCCCCCNC1CCNCC1
Activity [1]: inactive

CCOCCOCCOCCOCCN1CCC(C2CCNCC2)CC1
Activity [1]: inactive

CCCCCCCNC1CCNCC1
Activity [1]: inactive
